Source: patent publication US11958865B1, “Leucine-rich repeat kinase 2 (LRRK2) inhibitors” (H. Lundbeck A/S, priority 2022, dated 2024)
Like-named read-outs stand apart in the source and are kept apart here.

How the values were obtained:
[1] = Rat brain disposition after oral gavage; type: in vivo, male Sprague-Dawley rats; conditions: male, Sprague-Dawley, oral 5 mg/kg, mean ± stdev
Method: Brain disposition was evaluated in male Sprague-Dawley rats (n=3, standard body weight). Briefly, test compound was formulated as a simple suspension (0.5% HPMC in water) then administered by oral gavage (10 mg/kg, 10 mL/kg or 5 mg/kg, 10 mL/kg). At the designated time point (0.5 or 1 h post dose) rats were sacrificed and terminal blood and brain samples taken. Isolated plasma and brain homogenates were extracted by standard protein precipitation in acetonitrile, containing internal standard. Diluted extracts were analyzed by liquid-chromatography coupled with tandem mass spectrometry detection (LC-MS/MS) using a bioanalytical method. Concentrations of test compound in plasma and brain were quantified against matrix matched calibration standards. The total plasma and brain concentration time data are presented in Table 4 alongside the calculated brain Kp (total brain concentration:total plasma concentration ratio).
The total brain-to-plasma partition coefficient (brain Kp) is given by the ratio of the total brain concentration and total plasma concentration of the compound according to the equation below: […]
Based on the measured rat fuplasma and fubrain values and the brain Kp the unbound brain-to-plasma partition coefficient (brain Kp,uu for each compound was calculated. The Kp,uu parameter describes the extent of brain penetration for each compound, i.e. the parameter gives a direct quantitative description of how the blood-brain barrier (BBB) handles the compounds regarding passive transport and active influx/efflux. The brain Kp,uu is given by the equation below: […]

[2] = Fraction unbound in rat plasma and brain homogenate by equilibrium dialysis; type: in vitro ADME, male Sprague-Dawley rat; conditions: 1 μM, equilibrium dialysis 5 h at 37° C.; for fubrain (% free): rat brain homogenate; for fuplasma (% free): rat plasma
Method: The fraction of unbound compound in male Sprague-Dawley rat plasma (fuplasma) and brain homogenate (fubrain) were determined by equilibrium dialysis using 96-well HTD-dialysis plates with dialysis membranes (molecular weight cut off 12-14 KDa). One side of the HTD-dialysis plate was loaded with matrix (plasma or brain homogenate) and the other side with buffer (100 mM sodium phosphate buffer, pH 7.4). Test compounds were dissolved in DMSO then spiked (5 μL of 0.2 mM) into blank (995 μL) plasma or diluted brain homogenate (1:4 ratio in phosphate buffer) giving a final nominal concentration 1 μM (≤0.5% DMSO). The matrices were loaded into respective chambers and equilibrated against phosphate buffer for 5 h at 37° C. (in a humidified air incubator with 5% CO2 with shaking). Samples from both chambers (buffer and plasma or brain homogenate) were aliquoted to fresh 96-well polypropylene plates then matrix matched using an equal volume of opposite blank matrix before extraction with cold solvent (3 volumes acetonitrile) containing an appropriate bioanalytical internal standard. After centrifugation (20 min, 3200 g, 4° C.) the supernatants were diluted with appropriate volumes of water and compound concentrations were quantified by LC/MS-MS against matrix matched calibration standards. The fuplasma and fubrain were calculated according to equation 4 below.
[formula] Where [F] is the compound concentration on the buffer (receiver) side of the membrane; [T] is the compound concentration on the plasma or brain (donor) side of the membrane; D is the matrix dilution factor which is determined as D=4 for brain matrix and D=1 for plasma matrix in these assays.

[3] = Hepatocyte intrinsic clearance assay; type: in vitro ADME, Human; conditions: pooled donor, cryopreserved hepatocytes, pH 7.4; human hepatocytes 1×10^6/mL; 0.05 μM; 2 h at 37° C.
Method: Test compounds (final concentration 0.05 μM, 0.05% organic) were incubated for 2 h at 37° C., with shaking, in supplemented Leibovitz L-15 media (pH 7.4) containing commercially sourced, pooled donor, cryopreserved hepatocytes (final concentration 1×10^6 hepatocytes/mL). The CLint reactions (350 μL) were initiated by addition of test compound. Aliquots (25 μL) were taken at 1, 5, 10, 15, 30, 60, 90 and 120 minutes and then protein crashed with ice-cold acetonitrile containing internal standard (150 μL) then centrifuged (1960 g for 20 minutes at 4° C.). Supernatant was diluted (1:4) with deionized water then analyzed by liquid chromatography (LC)-tandem mass spectrometry (MS/MS).

[4] = Hepatic microsomal intrinsic clearance assay; type: in vitro ADME; conditions: liver microsomes 0.5 mg/mL, 1 μM, NADPH, 1 hour at 37° C., LLOQ 0.36 L/h/kg; for CLint scaled at 1 μM: pooled liver microsomes, pH 7.4
Method: Compounds (final concentration 1 μM, 1% organic) of the invention were incubated for 1 hour at 37° C., with shaking, in phosphate buffer (pH 7.4) containing commercially sourced pooled liver microsomes (final concentration 0.5 mg/mL). […] At designated time points (0, 5, 10, 20, 30 and 60 minutes) ice-cold acetonitrile containing internal standard (300 μL) was added to an incubation well to stop the reaction then mixed and centrifuged (3220 g for 20 minutes at 4° C.). Supernatant was diluted (1:4) with deionized water then analyzed by LC-MS/MS.

[5] = brain, n=3, read-out: Total brain concentration
[6] = plasma, n=3, read-out: Total plasma concentration

SMILES | Kp at 1 h ([1]; brain, n=3) | Kp uu at 1 h ([1]; brain, n=3) | concentration at 1 h [1, 5] [ng/g] | concentration at 1 h [1, 6] [ng/mL] | fubrain (% free) [2] [% free] | fuplasma (% free) [2] [% free] | CLint scaled at 0.05 μM [3] [mL/min/kg] | Hepatic microsomal CLint (L/h/kg) [4] | Kp at 0.5 h ([1]; brain, 0.5 h, n=3) | Kp uu at 0.5 h ([1]; brain, 0.5 h, n=3) | concentration at 0.5 h ([1]; brain, 0.5 h, n=3, read-out: Total brain concentration) [ng/g] | concentration at 0.5 h ([1]; plasma, 0.5 h, n=3, read-out: Total plasma concentration) [ng/mL] | CLint scaled at 1 μM [4] [mL/min/kg]
Cc1ccc(-n2nc3c(c2C)Nc2ncc4c(Cl)nn(c4n2)CCCO3)c(C)n1 [Example 9, 8-Chloro-2-(2,6-dimethylpyridin-3-yl)-3-methyl-2,4,12,13-tetrahydro-11H-5,7-(azenometheno)dipyrazolo[3,4-b:5′,1′-g][1]oxa[4,6,8]triazacycloundecine] | 1.4 ± 0.2 | 1 ± 0.12 | 906 ± 87 | 664 ± 47 | 7.4 | 10.2 | 16.2 | BQL** |  |  |  |  | 
[2H]C([2H])([2H])Oc1ncc(F)cc1-n1nc2c(c1C)Nc1ncc3c(Cl)nn(c3n1)CCCO2 (single isomer, unassigned) [Example 23, 8-Chloro-2-(5-fluoro-2-(methoxy-d3)pyridin-3-yl)-3-methyl-2,4,12,13-tetrahydro-11H-5,7-(azenometheno)dipyrazolo[3,4-b:5′,1′-g][1]oxa[4,6,8]triazacycloundecine] |  |  |  |  |  |  | 16.2 |  |  |  |  |  | 23.8
Cc1ncc(F)cc1-n1nc2c(c1C)Nc1ncc3c(Cl)nn(c3n1)CCCO2 [Example 10, 8-Chloro-2-(5-fluoro-2-methylpyridin-3-yl)-3-methyl-2,4,12,13-tetrahydro-11H-5,7-(azenometheno)dipyrazolo[3,4-b:5′,1′-g][1]oxa[4,6,8]triazacycloundecine] | 2.2 ± 0.3 | 0.89 ± 0.14 | 524 ± 79 | 246 ± 61 | 9.3 | 22.7 | 5.5 |  |  |  |  |  | 20
COc1ncc(F)cc1-n1nc2c(c1C)Nc1ncc3c(Cl)nn(c3n1)CCCO2 [Example 6, 8-Chloro-2-(5-fluoro-2-methoxypyridin-3-yl)-3-methyl-2,4,12,13-tetrahydro-11H-5,7-(azenometheno)dipyrazolo[3,4-b:5′,1′-g][1]oxa[4,6,8]triazacycloundecine] | 3 ± 0.06 | 1.22 ± 0.03 | 205 ± 21 | 69 ± 7 | 3.7 | 8.9 | 14.3 |  |  |  |  |  | 21

The remaining lines, values ahead:

Kp at 1 h ([1]; brain, n=3) | Kp uu at 1 h ([1]; brain, n=3) | concentration at 1 h [1, 5] [ng/g] | concentration at 1 h [1, 6] [ng/mL] | fubrain (% free) [2] [% free] | fuplasma (% free) [2] [% free] | CLint scaled at 0.05 μM [3] [mL/min/kg] | Hepatic microsomal CLint (L/h/kg) [4] | Kp at 0.5 h ([1]; brain, 0.5 h, n=3) | Kp uu at 0.5 h ([1]; brain, 0.5 h, n=3) | concentration at 0.5 h ([1]; brain, 0.5 h, n=3, read-out: Total brain concentration) [ng/g] | concentration at 0.5 h ([1]; plasma, 0.5 h, n=3, read-out: Total plasma concentration) [ng/mL] | CLint scaled at 1 μM [4] [mL/min/kg] | SMILES
 |  |  |  | 10.4 | 22.6 | 6 |  | 1.1 ± 0.1 | 0.52 ± 0.06 | 414 ± 97 | 362 ± 38 | 7.17 | Cc1ncccc1-n1nc2c(c1C)Nc1ncc3c(Cl)nn(c3n1)CCCO2 [Example 3, 8-Chloro-3-methyl-2-(2-methylpyridin-3-yl)-2,4,12,13-tetrahydro-11H-5,7-(azenometheno)dipyrazolo[3,4-b:5′,1′-g][1]oxa[4,6,8]triazacycloundecine]
1.1 ± 0.2 | 0.51 ± 0.07 | 649 ± 99 | 586 ± 82 | 5.3 | 11.7 | < 4 |  |  |  |  |  | 12.3 | Cc1cnc(C)c(-n2nc3c(c2C)Nc2ncc4c(Cl)nn(c4n2)CCCO3)c1 [Example 11, 8-Chloro-2-(2,5-dimethylpyridin-3-yl)-3-methyl-2,4,12,13-tetrahydro-11H-5,7-(azenometheno)dipyrazolo[3,4-b:5′,1′-g][1]oxa[4,6,8]triazacycloundecine]
